Experimental data taken from the supplement of paper PMC5908809.

Assays:
[1] = tested on: normal NK cells expanded with K562-aAPC; assay: percent inhibition of viability; higher = more inhibition; conditions: 72 h, IL-2 2.5 ng/mL
Procedure: (§1)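 Drug sensitivity and resistance testing on K562-aAPC-expanded normal NK cells: 5 concentrations (10-fold steps over a 10,000-fold range), 72 h at 37 °C, viability by CellTiter-Glo normalised to DMSO and benzethonium chloride controls; DSS from the fitted curve.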

[2] = tested on: DERL-7 (IL-2 2.5 ng/mL); assay: as above; conditions: 72 h
[3] = tested on: IMC-1 (IL-2 20 ng/mL); assay: as above; conditions: 72 h
[4] = tested on: KAI3 (IL-2 2.5 ng/mL); assay: as above; conditions: 72 h
[5] = tested on: KHYG-1 (IL-2 2.5 ng/mL); assay: as above; conditions: 72 h
[6] = tested on: NK-92 (IL-2 2.5 ng/mL); assay: as above; conditions: 72 h
[7] = tested on: NK-YS (IL-2 2.5 ng/mL); assay: as above; conditions: 72 h
[8] = tested on: NKL (IL-2 2.5 ng/mL); assay: as above; conditions: 72 h
[9] = tested on: SNK-6 (IL-2 2.5 ng/mL); assay: as above; conditions: 72 h
[10] = tested on: YT (IL-2 2.5 ng/mL); assay: as above; conditions: 72 h
[11] = tested on: normal primary NK cells, pool 1 (3 donors) (IL-2 2.5 ng/mL); assay: as above; conditions: 72 h
[12] = tested on: normal primary NK cells, pool 1 (3 donors), resting (IL-2 0 ng/mL); assay: as above; conditions: 72 h
[13] = tested on: normal primary NK cells, pool 2 (3 donors) (IL-2 2.5 ng/mL); assay: as above; conditions: 72 h
[14] = tested on: normal primary NK cells, pool 3 (3 donors) (IL-2 2.5 ng/mL); assay: as above; conditions: 72 h
[15] = tested on: normal NK cells expanded with K562-aAPC; assay: drug sensitivity score (DSS) (DSS units); higher = more sensitive; extreme values may be limits of the assay; conditions: 72 h; IL-2 2.5 ng/mL
Procedure: as §1

[16] = tested on: DERL-7 (IL-2 2.5 ng/mL); assay: as above; conditions: 72 h
[17] = tested on: IMC-1 (IL-2 20 ng/mL); assay: as above; conditions: 72 h
[18] = tested on: KAI3 (IL-2 2.5 ng/mL); assay: as above; conditions: 72 h
[19] = tested on: KHYG-1 (IL-2 2.5 ng/mL); assay: as above; conditions: 72 h
[20] = tested on: NK-92 (IL-2 2.5 ng/mL); assay: as above; conditions: 72 h
[21] = tested on: NK-YS (IL-2 2.5 ng/mL); assay: as above; conditions: 72 h
[22] = tested on: NKL (IL-2 2.5 ng/mL); assay: as above; conditions: 72 h
[23] = tested on: SNK-6 (IL-2 2.5 ng/mL); assay: as above; conditions: 72 h
[24] = tested on: YT (IL-2 2.5 ng/mL); assay: as above; conditions: 72 h
[25] = tested on: normal primary NK cells, pool 1 (3 donors) (IL-2 2.5 ng/mL); assay: as above; conditions: 72 h
[26] = tested on: normal primary NK cells, pool 1 (3 donors), resting (IL-2 0 ng/mL); assay: as above; conditions: 72 h
[27] = tested on: normal primary NK cells, pool 2 (3 donors) (IL-2 2.5 ng/mL); assay: as above; conditions: 72 h
[28] = tested on: normal primary NK cells, pool 3 (3 donors) (IL-2 2.5 ng/mL); assay: as above; conditions: 72 h

CO[C@H]1C[C@@H]2CC[C@@H](C)[C@@](O)(O2)C(=O)C(=O)N2CCCC[C@H]2C(=O)O[C@H]([C@H](C)C[C@@H]2CC[C@@H](OCCO)[C@H](OC)C2)CC(=O)[C@H](C)/C=C(\C)[C@@H](O)[C@@H](OC)C(=O)[C@H](C)C[C@H](C)/C=C/C=C/C=C/1C [Everolimus] (max concentration tested 100 nM)
percent inhibition of viability [%]
Conditions	0.01 nM	0.1 nM	1 nM	10 nM	100 nM
[1]	-0.77	-3.8	-2.52	2.05	0.46
[2]	-6.16	5.85	26.6	49.4	52.4
[3]	-0.49	-3.23	-12.1	-39.5	-47.1
[4]	-3.78	2.36	31.4	45.3	37.6
[5]	-2.44	-5.06	0.91	30.6	28.2
[6]	-9.11	-13.2	0.14	10.7	17
[7]	-2.59	2.94	38.2	47.2	45.8
[8]	4.18	17.6	36.9	46	43.3
[9]	5.61	27	39.2	45.4	42.4
[10]	0.19	-0.65	15.8	38.4	37
[11]	-12.5	-14.8	-8.5	3.67	5.77
[12]	-9.7	-10.5	-6.43	11.5	21.5
[13]	-7.7	-1.98	0.82	5.73	4.97
[14]	-12.6	-4.69	-3.14	-1.42	-2.25

Conditions	drug sensitivity score
[15]	0
[16]	12.3
[17]	0
[18]	12.1
[19]	5.27
[20]	1.27
[21]	13.5
[22]	14.5
[23]	16.6
[24]	8.98
[25]	0
[26]	1.91
[27]	0
[28]	0

CC(C)n1cnc2c(NCCc3ccc(O)cc3)nc(-c3csc4ccccc34)nc21 [StemRegenin 1] (max concentration tested 10000 nM)
percent inhibition of viability [%]
Conditions	1 nM	10 nM	100 nM	1000 nM	10000 nM
[1]	-5.56	-5.75	-5.39	-7.57	0.59
[2]	2.23	15.4	50.9	71.1	96.4
[3]	-6.67	-2.1	-7.77	-8.29	0.67
[4]	-8.14	3.68	6.57	-0.19	76.8
[5]	-5.41	-0.83	0.98	8.59	98.9
[6]	-11	-16.6	1.48	39.2	97.7
[7]	-3.67	-6.84	-5.59	1.14	24.9
[8]	-9.52	0.88	5.6	18.4	80.4
[9]	-6.98	28.7	-5.97	-12.5	71.9
[10]	-5.32	-2.81	0.29	5.57	71.9
[11]	-8.25	-4.37	-0.27	7.52	45
[12]	-11.7	-11.1	15.2	12.3	74.7
[13]	-1.53	-2.41	-0.22	-2.53	54.6
[14]	-3.75	-2.11	-2.9	-0.23	36

Conditions	drug sensitivity score
[15]	0
[16]	21.1
[17]	0
[18]	4.25
[19]	6.85
[20]	10.6
[21]	1.09
[22]	7.36
[23]	3.24
[24]	4.83
[25]	3.58
[26]	6.2
[27]	2.7
[28]	1.7

COc1cccc2c1C(=O)c1c(O)c3c(c(O)c1C2=O)C[C@@](O)(/C(CO)=N/NC(=O)CCCCCN1C(=O)C=CC1=O)C[C@@H]3O[C@H]1C[C@H](N)[C@H](O)[C@H](C)O1 [Aldoxorubicin] (max concentration tested 1000 nM)
percent inhibition of viability [%]
Conditions	0.1 nM	1 nM	10 nM	100 nM	1000 nM
[1]	0.3	4.21	5.36	47	101
[2]	-4.24	-3.44	13.3	87.3	101
[3]	-3.88	-4.51	3.18	86.5	101
[4]	-11.1	-12.4	4.9	74.1	87
[5]	-0.32	5.45	-0.18	79.9	106
[6]	-14.3	-7.33	-3.29	53.2	104
[7]	-4.26	-3.37	13.9	83.1	103
[8]	-13.6	-5.62	92.1	103	107
[9]	7.67	13.7	17.1	91.1	95.2
[10]	3.75	-0.69	-3.82	70.5	105
[11]	-11.9	-3.83	-12.3	29.5	97.6
[12]	-26	-23.3	-31.6	64.9	91.5
[13]	-13.7	-6.33	0.42	49.2	94.5
[14]	-11.3	-10.4	0.28	31.5	97.1

Conditions	drug sensitivity score
[15]	11.1
[16]	17.6
[17]	16
[18]	14.2
[19]	14.7
[20]	12
[21]	17
[22]	28.9
[23]	18.9
[24]	13.6
[25]	9.69
[26]	12.4
[27]	11.3
[28]	9.86

CCC(C)(C)C(=O)O[C@H]1C[C@@H](C)C=C2C=C[C@H](C)[C@H](CC[C@@H]3C[C@@H](O)CC(=O)O3)[C@H]21 [Simvastatin] (max concentration tested 10000 nM)
percent inhibition of viability [%]
Conditions	1 nM	10 nM	100 nM	1000 nM	10000 nM
[1]	0.17	-4.47	-1.19	-2.06	6.89
[2]	-1.97	-3.51	4.88	4.07	10.3
[3]	-0.2	-3.36	3.54	3.84	38.1
[4]	3.02	-8.09	-7.7	-3.05	22.5
[5]	2.27	-0.82	3.03	5.63	11.2
[6]	-8.62	-9.55	2.91	-5.14	-1.54
[7]	-1.72	2.03	2	6.51	68.6
[8]	-16.6	-8.92	0.63	6	68.9
[9]	4.57	-0.33	6.13	-5.3	1.07
[10]	0.42	-0.1	0.72	2.62	23.9
[11]	-7.84	9.33	-16.5	-3.95	8.72
[12]	-0.52	-1.88	-12.8	-6.51	13.3
[13]	-9.03	-7.28	-6.35	14.3	19.6
[14]	-9.67	-10.8	-5.99	4.87	2.32

Conditions	drug sensitivity score
[15]	0
[16]	0
[17]	2.48
[18]	0.61
[19]	0
[20]	0
[21]	4.82
[22]	4.74
[23]	0
[24]	1.26
[25]	0
[26]	0.04
[27]	1.89
[28]	0
